# Several values for one entry are separate records, joined by “and”; a condition that tells them apart may be missing. Equal entries are not always repeated.
# Assays:
# callus event 3404-006 = assay: Dose response of AAD1 (v3) expressing maize callus event; assay type: cell-based; conditions: haloxyfop (Gallant Super) up to 400 nM
# Description: Non-transformed donor Hi-II cell lines were pooled together, […]-treated without DNA, filtered onto GN6 medium at the rate of 6 ml per filter, and allowed to callus for 2-3 weeks at 28° C. Approximately 200 mg of callused suspension tissue was transferred per treatment to selection media in 60×20 mm plates containing 30, 100 or 300 nM R-haloxyfop acid. Three replicates were used per concentration. A control medium containing 1 mg/L bialaphos (from Herbiace commercial formulation, Meiji Seika, Japan), GN6 (1H), was also included for comparison. Callus was removed after 2 weeks, weighed, and transferred to fresh media of the same concentration for another 2 weeks. After a total of 4 weeks elapsed time, tissue was removed, weighed a final time, and then discarded.
# A smaller subset of these events was assessed in dose-response studies in comparison to a non-transformed control. A range of concentrations of haloxyfop (from Gallant Super formulation), up to 400 nM, were tested.
# [1] = tested on: AAD1-transformed T0 ‘Shamrock’ Kentucky bluegrass events; assay: Haloxyfop-R-methyl postemergence on AAD1 (pDAB3878) T0 Shamrock Kentucky bluegrass, visual % injury; assay type: in vivo; conditions: for injury of event KGB51: 560 g ae/ha
# Description: ‘Shamrock’ Kentucky bluegrass T0 pDAB3878 events were maintained vegetatively through division of the crowns and replanting the clonal pieces into fresh growth medium. Clonally propagated plants were maintained by periodic “mowing” of vegetative tissues.
# A growth medium was prepared by mixing Promix® and sand in a 2 to 1 ratio. The medium was contained in plastic pots with a surface area of 84.6 square centimeters (cm^2). When required to maintain plant health, a fungicide, insecticide, and/or other chemical or physical treatment was applied to stock plants. The plants were maintained in a greenhouse with an approximate 14 hour photoperiod which was maintained at 24-27° C. during the day and 22-25° C. during the night. Nutrients (Peters Excel® 15-5-15 5-Ca 2-Mg and iron chelate) were applied in the irrigation solution as needed and water was added on a regular basis. Supplemental lighting was provided with overhead metal halide 1000-Watt lamps when PAR dropped below 500.
# The selected T0 plants were sprayed with haloxyfop-R-methyl (Gallant Super®, DOW AGROSCIENCES, INC.) at rates ranging from 140 to 560 g ae/ha. […] This rate would also control susceptible monocot weed species. Measured amounts were placed individually in 25 mL glass vials and dissolved in a 12 mL volume of 1.0% (v/v) Agri-Dex® Crop Oil Concentrate (COC).
# Spray solutions were applied to the plant material with an overhead Mandel™ track sprayer equipped with a 8002E nozzles calibrated to deliver 187 L/ha over an application area of 0.503 square meters (m^2) at a spray height of 18 inches (46 cm) above average plant canopy height. Control plants were sprayed in the same manner with the COC blank.
# The treated plants and control plants were placed in a greenhouse and watered by sub-irrigation to prevent wash-off of the test compounds. At various times after application, the condition of the test plants as compared with that of the untreated plants was determined visually and scored on a scale of 0 to 100 percent, where 0 corresponds to no injury or growth inhibition, and 100 corresponds to complete kill. Regenerated, non-transformed (NT) ‘Shamrock’ Kentucky bluegrass plants and/or seed-derived clonally propagated plants served as haloxyfop sensitive controls.
# [2] = tested on: Non-transformed Hi-II callused suspension tissue; assay: Dose response of non-transformed maize callus tissue; assay type: cell-based; conditions: haloxyfop 400 nM
# [3] = tested on: transformed-control line containing PAT and Cry1F; assay: Foliar-applied auxinic herbicides on control (PAT/Cry1F, wildtype) Arabidopsis, % injury 14 DAT; assay type: in vivo, Arabidopsis thaliana; conditions: PatCry1f - Control
# Procedure, shortened: (§1)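 Homozygous T4 AAD1 (v3) Arabidopsis (line AAD1.01.315.076) and a PAT/Cry1F transformed control were grown in pots and track-sprayed foliarly at 187 L/ha with herbicides formulated in 200 mM Hepes pH 7.5. Injury was rated 14 days after treatment, with 3-4 replicates averaged over two experiments.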
# [4] = tested on: T4 Arabidopsis homozygous for AAD1 (v3) (line AAD1.01.315.076); assay: Foliar-applied auxinic herbicides on homozygous T4 AAD1 (v3) Arabidopsis, % injury 14 DAT; assay type: in vivo, Arabidopsis thaliana; conditions: AAD1.01.315.076.T4 homozygous AAD1 plants
# Procedure, shortened: as §1
# [5] = tested on: F1 progeny of ‘Crenshaw’ creeping bentgrass pDAB5042 events; assay: AAD1 whole-plant selectable marker: F1 progeny of Crenshaw pDAB5042 events x elite lines, injury to 240 g ae/ha quizalofop-p-ethyl; assay type: in vivo
# Description: The use of AAD1 as a selectable marker for quizalofop selection agent was tested with an “F1” generation of plants that were produced by crossing selected single copy pDAB5042 ‘Crenshaw’ events with non-transgenic elite lines (lines 3425-12, 3427-2, or 3431-1). ‘Crenshaw’ events were vernalized in a growth chamber; elite line crossing partners were field vernalized. Nearing the time of bloom, a non-transgenic plant at the same reproductive stage was moved into the growth chamber in close proximity of the pDAB5042 event. Panicles were secured together with a twist tie, and both panicles were bagged together and labeled. Alternatively, to increase the number of crosses, some panicles were excised and secured to an intact panicle and bagged. At seed harvest, individual seed heads were removed and packaged individually.
# Seed were sown on flats containing Metromix™, and germinated in a growth chamber. All emerged seedlings were transplanted into growth medium prepared by mixing Promix® and sand in a 2 to 1 ratio. The medium was contained in plastic pots with a surface area of 84.6 square centimeters (cm^2). Plants were maintained in a greenhouse until established. Leaf tissue from each seedling was harvested for molecular analysis, and tissues were probed for the presence of AAD1. After tissue harvest, the established plants were trimmed to simulate mowing.
# The same two plants were the only plants testing positive for one copy of AAD1.
compound,measurement,setting,value
CC(Oc1ccc(Oc2ncc(C(F)(F)F)cc2Cl)cc1)C(=O)O (stereo not drawn) [haloxyfop],callus growth of event 3404-006,callus event 3404-006,no significant reduction in callus growth
same,"mean injury, pDAB3878 Shamrock Kentucky bluegrass events","[1]; 140 and 560 g ae/ha, 11, 14 and 20 DAA",less than 15%
same,injury of event KGB51,[1]; 11 DAA,about 20%
same,injury of event KGB51,[1]; 14 DAA,~30%
same,injury of event KGB51,[1]; 20 DAA,~30%
same,non-transgenic corn callus tissue growth,[2],inhibited
Nc1c(Cl)c(F)nc(OCC(=O)O)c1Cl [Fluroxypyr],Ave % Injury 14DAT,[3]; 50 g ae/ha foliar,76%
same,Ave % Injury 14DAT,[3]; 200 g ae/ha foliar,85%
same,Ave % Injury 14DAT,[3]; 800 g ae/ha foliar,85%
same,Ave % Injury 14DAT,[3]; 3200 g ae/ha foliar,95%
same,Ave % Injury 14DAT,[4]; 50 g ae/ha foliar,48%
same,Ave % Injury 14DAT,[4]; 200 g ae/ha foliar,75%
same,Ave % Injury 14DAT,[4]; 800 g ae/ha foliar,88%
same,Ave % Injury 14DAT,[4]; 3200 g ae/ha foliar,95%
CCOC(=O)[C@@H](C)Oc1ccc(Oc2cnc3cc(Cl)ccc3n2)cc1 [quizalofop-p-ethyl],Visual Injury 39 DAA,[5]; F1 progeny of 3431-1 × pDAB5042 Event 162,100%
same,Visual Injury 39 DAA,[5]; F1 progeny of NT6 × pDAB5042 Event 186,95%
same,Visual Injury 39 DAA,[5]; individual F1 progeny of 3427-2 × pDAB5042 Event 186,60% and 80% and 95% (4×) and 90% and 99% (3×) and 85% and 100% (2×)
same,Visual Injury 39 DAA,[5]; individual F1 progeny of 3431-1 × pDAB5042 Event 127,90% (4×) and 95% (4×) and 100% (6×) and 99%
same,Visual Injury 39 DAA,[5]; individual F1 progeny of 3431-1 × pDAB5042 Event 186,100% (6×) and 99% (10×) and 95% (8×) and 80% (2×) and 90%
same,Visual Injury 39 DAA,[5]; individual F1 progeny of pDAB5042 Event 127 × 3431-1,99% (3×) and 95%
same,Visual Injury 39 DAA,[5]; individual F1 progeny of pDAB5042 Event 144 × 3425-12,99% and 100%
same,Visual Injury 39 DAA,[5]; individual F1 progeny of pDAB5042 Event 186 × 3425-12 (asterisk: AAD1 positive),0%
same,Visual Injury 39 DAA,[5]; individual F1 progeny of pDAB5042 Event 186 × 3431-1,99% (4×) and 100% (2×) and 90%
same,Visual Injury 39 DAA,[5]; individual progeny of NT6 × 3427-2,90% and 100% (2×)

# Source: patent publication US10450549B2, “Aryloxyphenoxypropionate tolerance in turfrgass species and use of AAD1 as a selectable marker” (Dow AgroSciences, LLC, priority 2004, dated 2019)
